Patent US20060039887A1, “Cosmetic or pharmaceutical composition for skin care” (Infinity2 Health Sciences, Inc., priority 2004, published 2006)

Legend:
[1] = pH of 1 wt % solution in water; type: physicochemical; conditions: 1 wt % (1%) water solution
[2] = from water solutions
[3] = stability of water solution; type: physicochemical
[4] = Stability of Cu-ATP solution, Hunter Lab L*a*b* color readings; type: physicochemical; set-up: key to color reading "L": L* lightness: 100 = white to 0 = black; key to color reading "a": a*: negative = greener, positive = redder; key to color reading "b": b*: negative = bluer, positive = yellower; conditions: full light, ambient room temperature
From the text: It should be noted that, where relevant, composition ingredients and the like are provided in weight percentages. Further, where applicable, color measurements were done on a Hunter Lab color meter. This color meter measures color on a scale defined as L*a*b* scale. The term “L” is from 100 to 0, representing white and black colors (lightness and darkness), respectively. A (−) value of “a” indicates a more green color. A (+) value of “a” indicates a more red color. A (−) value of “b” indicates a more blue color. A (+) value of “b” indicates a more yellow color. Various numeric values of “a” and “b” indicate degree of respective colors. Mixed colors are thus indicated by a mixed value of L*a*b* as will be noted in various examples below. The materials used had the following properties. Adenosine triphosphate disodium hydrate (molecular weight 551 Da), glutathione (molecular weight 307 Da), copper gluconate (molecular weight 453 Da, Cu=14%), copper amino acid chelate (copper 12%), fructose-1,6-diphosphate dicalcium (molecular weight 416 Da), zinc gluconate (molecular weight 455 Da, Zn=1 4%), manganese gluconate (molecular weight 445 Da, Mn=12%). The analysis of trace metals quoted in ppm in various examples, as noted below, are within +-10%.
The solution “C” obtained in Example 2 was stored in a beaker with a plastic film wrapped over it. The solution was stored in full light (fluorescent lamps) under ambient room temperature conditions. The color readings were measured periodically, and any visually observed discolorations, or precipitate formations, if any, were also recorded, as noted below.

Question: With `Nc1ncnc2c1ncn2[C@@H]1O[C@H](COP(=O)(O)OP(=O)(O)OP(=O)(O)O)[C@@H](O)[C@H]1O` [ATP, adenosine triphosphate] as the compound, how does the “pH of 1 wt % solution in water” value [1] read?
Answer: Its value is 2.0.

Question: What does the source list for `NC(=O)c1cccnc1.O=C1O[C@H]([C@@H](O)CO)C(O)=C1O` [Niacinamide ascorbate]?
Answer: pH of 1 wt % solution in water [1]: 3.7; absorption into skin [2]: rapidly absorbed; stability of water solution [3]: good

Question: For `O=C1O[C@H]([C@@H](O)CO)C(O)=C1O` [ascorbic acid], which “pH of 1 wt % solution in water” value [1] is on record?
Answer: The value was 2.6.

Question: And the “stability of water solution” value [3]?
Answer: The value was “poor”.

Question: For `O=C(O)[C@H](O)[C@@H](O)[C@H](O)[C@H](O)CO` [gluconic acid], which “pH of 1 wt % solution in water” value [1] is on record?
Answer: Its value is 2.5.

Question: With `NC(=O)c1cccnc1` [niacinamide] as the compound, how does the “pH of 1 wt % solution in water” value [1] read?
Answer: The value was 6.3.

Question: And the “stability of water solution” value [3]?
Answer: The value was “good”.

Question: Which “color reading "L"” value ([4]; 1 Week) does the source give for Copper ATP [Cu-ATP Solution] here?
Answer: The value was 51.35.

Question: And the “color reading "a"” value ([4]; 1 Week)?
Answer: The value was −35.38.

Question: What about the “color reading "b"” value ([4]; 1 Week) of the same compound?
Answer: The value was −5.16.

Question: And the “color reading "L"” value ([4]; 4 Weeks)?
Answer: The value was 50.54.

Question: What about the “color reading "a"” value ([4]; 4 Weeks) of the same compound?
Answer: Its value is −36.08.

Question: What about the “color reading "b"” value ([4]; 4 Weeks) of the same compound?
Answer: Its value is −5.56.

Question: And the “color reading "L"” value ([4]; Initial)?
Answer: The value was 53.52.

Question: What about the “color reading "a"” value ([4]; Initial) of the same compound?
Answer: The value was −33.58.

Question: And the “color reading "b"” value ([4]; Initial)?
Answer: The value was −4.19.
